Data: PubChem BioAssay (NCI)
Where “and” joins values, the source holds several entries; their conditions need not be identical. Equal entries are not always repeated.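 Five compound concentrations were applied to cells in 96-well plates for 48 hours; endpoints were derived by simple linear interpolation of the resulting dose-response curve. Abbreviation: GI50, concentration required for 50% inhibition of growth. TGI marks complete inhibition of growth.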 *1 amine or outer side, *2 acyl side, *3 side chain or, on linkers, in order; H or OH if unused. Where a SMILES comes first, the peptide text is derived from it. [ ]: non-standard residue; d: D form. The star is where a group is joined. X11 = C/C=C/CC(C)C(O)[C@H](N[*:1])C(=O)[*:2]; Decanoyl = CCCCCCCCCC(=O)*; Leu(ol) = CC(C)C[C@H](N)CO; Iva = CC[C@](C)(N)C(=O)O; Aib = CC(C)(N)C(=O)O

Each compound was assayed on MDA-MB-468 breast (assay: NCI tumour cell line growth inhibition, 48 h).

SMILES	GI50	TGI
CS(=O)(=O)c1ccc(Nc2nc(N[C@H]3CCCC[C@H]3N)nc3cc[nH]c(=O)c23)cc1	338 nM	1460 nM
Cn1cc(C2=C(c3c[nH]c4ccccc34)C(=O)NC2=O)c2ccccc21	470 nM	> 25000 nM
O=C(NCC(F)(F)F)Nc1cccc(-c2cnc3cc(-c4ccc(F)cc4)ccn23)c1	339 nM	1930 nM
COc1ccccc1S(=O)(=O)Nc1ccc2c3c(cc(CCC(=O)NCCCCNc4cccc5c4C(=O)N(C4CCC(=O)NC4=O)C5=O)cc13)C(=O)N2C (centres undefined)	21.7 nM	87.2 nM
COc1ccc(-c2nc(-c3nc4ccc(C)cc4[nH]3)cc3c2[nH]c2ccccc23)cc1	2690 nM	25000 nM
COC(=O)N1CCN(CCNCc2ccc(NC(=O)c3ccc(C)c(C#Cc4cnc5cccnn45)c3)cc2C(F)(F)F)CC1	1580 nM	3200 nM
O=C(/C=C/C=C/c1ccccc1)c1ccco1	5000 nM	25100 nM
CN=C1C=CC(=C(c2ccc(N(C)C)cc2)c2ccc(N(C)C)cc2)C=C1	178 nM	539 nM
CC(C)N(Cc1ccc(CN(C(=O)CCl)C(C)C)cc1)C(=O)CCl	1740 nM	3940 nM
CCN(CC)CCCC(C)Nc1cc(-c2cccc(OC(F)(F)F)c2)nc2ccc(N3CCCC3)cc12 (centres undefined)	43.5 nM	44000 nM
CSc1nc2nc3c(nc2c(=O)n1C)C(=O)c1ccccc1C3=O	140 nM	352 nM
CS(=O)(=O)Nc1cccc(-c2ccc3ncnc(Nc4ccc(F)c(Cl)c4)c3c2)c1	108 nM	860 nM
COc1cc(OC)cc(C2C3=C(COC3=O)Nc3cc(OC)ccc32)c1 (centres undefined)	< 10 nM	< 12.2 nM
CC(=O)N1CCN(CCNC(=O)n2cc(-c3ccncc3)c(-c3cc(O)cc(Cl)c3)n2)CC1	4590 nM	20800 nM
C#C[C@@]1(O)[C@@H](CO)O[C@@H](n2cc(I)c3c(N)ncnc32)[C@@H]1O	153 nM	561 nM
C/C=C/CC(C)C(O)[C@H](NC(=O)[C@@H]1CCCN1C(=O)[C@](C)(CC)NC(=O)CCCCCCCCC)C(=O)N[C@@](C)(CC)C(=O)N[C@@H](CCC(N)=O)C(=O)N[C@H](CCC(N)=O)C(=O)NC(C)(C)C(=O)NC(C)(C)C(=O)N[C@@H](CCC(N)=O)C(=O)N[C@H](CC(C)C)C(=O)N[C@H](CO)CC(C)C (stereo partly drawn) (Decanoyl-[Iva]P[X11][Iva]Q[dQ][Aib][Aib]Q[dL][Leu(ol)])	1780 nM	3380 nM
O=C1/C(=C/c2ccc(F)cc2)CN(C(=O)CCN2CCC(=NO)CC2)C/C1=C\c1ccc(F)cc1	1730 nM	4720 nM
CCCCCCSSC(=S)N(CC)CC	29900 nM	> 100000 nM
COc1cccc2cc(N(C)c3nc(C)nc4c3CCC4)ccc12	< 10 nM	20500 nM
Cc1cc(C)c(C#N)c(Sc2nc(C)c([N+](=O)[O-])c(C)c2C#N)n1	1650 nM	3770 nM

SMILES	GI50	TGI
O=C(NC(=O)c1c(Cl)nc2sccn12)Nc1ccc(Cl)cc1	3950 nM	35700 nM
C[C@@H]1CCC/C=C/[C@H]2C[C@@H](O)C[C@@H]2[C@@H](O)/C=C/C(=O)O1	64.8 nM	5030 nM
O=C(NCCCc1cn[nH]c1)c1ccc(-c2ccncc2)c(C#Cc2ccc(F)cc2)c1	2140 nM	12800 nM
Cc1c(C#N)cccc1[C@@H](C)Nc1nnc(C)c2cnc(N3CCOCC3)cc12	7630 nM	38100 nM
O=C1CSC(c2ccccc2Cl)N1c1nnc(Cn2cnnc2)o1 (centres undefined)	3850 nM	17200 nM
COc1cc(C2C3=C(COC3=O)N(CCO)c3cc4c(cc32)OCCO4)cc(OC)c1OC (centres undefined)	106 nM	319 nM
CNCCN(C)c1ccc(Nc2cc(NC3CC3)n3ncc(C#N)c3n2)cc1NC(C)=O	< 10.6 nM	62.6 nM
NC(=O)c1ccc(Oc2nccc(-c3c(-c4ccc(F)cc4)ncn3C3CCNCC3)n2)cc1	7400 nM	> 25000 nM
c1ccc(OCCC[P+](c2ccccc2)(c2ccccc2)c2ccccc2)cc1	230 nM	1490 nM
Cc1ccc(-c2nc(/C=N/Nc3cc(C)nc4ccc(Cl)cc34)c(C)o2)cc1	1730 nM	3260 nM
COc1ccc(C(=O)c2cc(C)c(OC)c(C)c2)c(OC)c1NC(C)=O	159 nM	
N#CC1=C(N)Oc2c(ccc3ccccc23)C1c1cc(=O)oc2ccc(Cl)cc12 (centres undefined)	520 nM	33000 nM
CN(C)CCCn1c(=O)c2ccccc2c2cnc3[nH]ccc3c21	493 nM	2530 nM
Clc1ccc(-c2c3ccc(=[N+]4CCCCC4)cc-3oc3cc(N4CCCCC4)ccc23)cc1	104 nM	261 nM
COc1ccc(C(=O)/C=C/c2cc(-c3cc(OC)c(OC)c(OC)c3)n[nH]2)cc1	1290 nM	2650 nM
NS(=O)(=O)c1ccc(Nc2nc(N/N=C/c3ccc(C(F)(F)F)cc3)nc(Nc3ccccc3)n2)cc1	1730 nM	3870 nM
CC/C(Cc1ccccc1)=C(\c1ccc(OCCN2CCCC2)cc1)c1ccc(OC(=O)NCc2ccccc2)cc1	1990 nM	3930 nM
C#Cc1cccc(Nc2nc(Cl)nc3cc(NC(=O)CCl)ccc23)c1	500 nM	1170 nM
CNCCCNc1nc2ccccc2c2c(=O)c3cc(OC)ccc3sc12	1760 nM	3470 nM
COc1ccc(-c2cc3c(C)nc(N)nc3n(C3CCC(OCCO)CC3)c2=O)cn1 (centres undefined)	41.7 nM and 32.3 nM	270 nM and 256 nM
